# Results reported in US11104735B2, “Inhibition of cytokine-induced SH2 protein in NK cells” (The Walter and Eliza Hall Institute of Medical Research, priority 2015, dated 2021).
# Residues, ends and D or L forms follow the SMILES beside them. *: point of attachment. Cbz = O=C(OCc1ccccc1)*
# How the values were obtained:
# wild-type NK cells = test: JAK1 phosphorylation in IL-15 stimulated wild-type NK cells; type: cell-based, mouse; conditions: IL-15 50 ng/ml
# Method: (a) Cultured NK cells from wild-type and Cish^−/− mice were lysed, mRNA purified and analysed by RNAseq. Mean RPKM values for duplicate samples (left panel). JAK1 mRNA levels were analysed by Q-PCR (right panel). Mean±S.D., n=3. (b) 4-12% Coomassie-stained SDS-PAGE gel showing purified hCIS-SH2-BC complex, elongin B and elongin C. (c) Isothermal calorimetry (ITC) was used to measure the affinity of hCIS-SH2-BC binding to phosphopeptides corresponding to tyrosines within the JAK1/3 kinase domain activation loops and IL-2Rβ and γ cytoplasmic domains. […] were titrated into a 30 μM solution of the GST-CIS-SH2-BC ternary complex. ITC titration curves and tabular view of some results (inset) showing mean±S.D. from two independent experiments. N.D.=Not detectable, p=phosphorylated. The titration curves all fitted well to a single-site model. (d) Cultured wild-type NK cells were washed and starved of IL-15 for 4 h, with and without addition of the proteasomal inhibitor, MG132. Cells were then stimulated with 50 ng ml^−1 IL-15 for the indicated times, prior to cell lysis and Western blotting with antibodies to the indicated proteins. […]
# Lysates were clarified by centrifugation at 16,060×g for 15 min at 4° C. Protein concentrations were determined by the BCA method (Pierce, Rockford). […]
# [1] = system: JAK1 phosphorylation in 293T cells; test: JAK1 phosphorylation in 293T cells co-expressing JAK1 and CIS; type: cell-based, human; conditions: pre-incubation of 293T cells, 10 μM for 4 h
# Method: (a) Isothermal calorimetry (ITC) was used to measure the affinity of hCIS-SH2-BC binding to phosphopeptides corresponding to tyrosines within the JAK1/3 kinase domain activation loops and IL-2Rβ cytoplasmic domains. Tabular view of the results, showing mean±S.D. from two independent experiments. N.D.=Not detectable, p=phosphorylated. […] In some instances, cells were treated with the proteasome inhibitor, MG132. […] Protein expression levels are shown by anti-FLAG blots of whole cell lysates (lower panels). […] Protein levels are shown in the lower panels by anti-FLAG blot of cell lysates. (e) Using a cell-free system, FLAG-JAK1 was incubated with (+) and without (−) the CIS-E3 ligase complex (CIS-SH2-BC with Cullin5 and Rbx2), together with ubiquitin, E1 and E2 enzymes at 37° C. for the times indicated. JAK1 ubiquitination was visualised by Western blotting with antibodies to […]. […] Data were normalised to no-CIS controls. […] See also FIG. 9.
# Lysates were clarified by centrifugation at 16,060×g for 15 min at 4° C. Protein concentrations were determined by the BCA method (Pierce, Rockford). […] In some instances, cells were pre-treated with 10 μM MG132 for 4 h to block proteasomal degradation. 48 h post-transfection cells were lysed in KALB buffer (Nicholson et al., 1995). FLAG proteins were immunoprecipitated using M2-beads (Sigma) and proteins eluted in SDS sample buffer. […]
# primary human NK cells = test: Immunoblot of IL-15 treated primary human NK cells; type: cell-based; conditions: 2 h with IL-15, 10 μM
# Method: Patient-derived human NK cells (a) or NK lymphoma cell lines (b) SNK-10, (c) NKL and NK6, (d) NK-92 were washed free of cytokine and rested for 4 h (a) or 16 h (b-d) prior to treatment with IL-15 for the indicated times. In some instances, cells were incubated with the proteasomal inhibitor MG132 (10 μM). Cells were lysed and analysed by immunoblotting with antibodies to the indicated phosphorylated (p) and total proteins.
# LWT1 melanoma cells = test: LWT1 experimental lung metastasis; type: in vivo, mouse; conditions: Cish−/− mice, 7.5×10^5 cells i.v., day 14
# Method: Mice were monitored for tumor development and were euthanized at the point of abdominal swelling and discomfort. Improved survival between groups was assessed by the Log-rank Mantel-Cox test. (D) Groups of 5-15 B6.WT (Cish^+/+) or B6.Cish^-/- mice were injected i.v. with 5×10^5 RM-1 prostate carcinoma cells and treated with either cIg, anti-CD96, anti-PD-1, anti-CTLA-4 or anti-PD1/anti-CTLA-4 combination (250 μg i.p. each on days 0 and 3). (E) Groups of 8-10 B6.WT (Cish^+1 or B6.Cish^-/- mice were injected i.v. with 7.5×10^5 B16F10 melanoma cells and treated with either 250 μg cIg or anti-CD96 mAb (i.p. on days 0 and 3). (F) Groups of 5-6 B6.WT (Cish^+1 or B6.Cish^-/- mice were injected i.v. with 7.5×10^5 LWT1 melanoma cells and treated with either vehicle or PLX4720 (10 mg/kg i.p., daily from day 0 to 6). Lungs were harvested on (A, D, F) day 14 or (B, E) day 13 and macrometastases counted. Individual mice are shown by each symbol and the results are plotted as mean±SEM. Statistically significant differences as indicated were determined by one-way ANOVA with Tukey post-test (for multiple comparisons) (*: […]; **: p<0.01; ***: p<0.001; ****: p<0.0001). […] Lungs were harvested on day 14 and macrometastases counted. […] Lungs were harvested on day 14 and either fixed in Bouin's solution and B16F10 metastases counted^44 or analysed for NK cell expansion by flow cytometry. […]
# CIS = target: T1, CIS (Homo sapiens, UniProt Q9NSE2, DEL174-202); test: Kinase inhibition assay with competitor of CIS-SH2 binding; type: biochemical; conditions: for Effect on CIS-mediated inhibition of JAK1 JH1: CIS-SH2-BC, excess JAK1-Y1034 phosphopeptide as competitor
# T1 construct: fragment: residues 66-258 with a deletion of; GST (N); made in house; host or cells: E. coli BL21(DE3)
# Method: (a) Cultured NK cells from wild-type and Cish^−/− mice were lysed, mRNA purified and analysed by RNAseq. Mean RPKM values for duplicate samples (left panel). JAK1 mRNA levels were analysed by Q-PCR (right panel). Mean±S.D., n=3. (b) 4-12% Coomassie-stained SDS-PAGE gel showing purified hCIS-SH2-BC complex, elongin B and elongin C. (c) Isothermal calorimetry (ITC) was used to measure the affinity of hCIS-SH2-BC binding to phosphopeptides corresponding to tyrosines within the JAK1/3 kinase domain activation loops and IL-2Rβ and γ cytoplasmic domains. […] were titrated into a 30 μM solution of the GST-CIS-SH2-BC ternary complex. ITC titration curves and tabular view of some results (inset) showing mean±S.D. from two independent experiments. N.D.=Not detectable, p=phosphorylated. The titration curves all fitted well to a single-site model. (d) Cultured wild-type NK cells were washed and starved of IL-15 for 4 h, with and without addition of the proteasomal inhibitor, MG132. Cells were then stimulated with 50 ng ml^−1 IL-15 for the indicated times, prior to cell lysis and Western blotting with antibodies to the indicated proteins. (e) Kinase inhibition assays were performed with the kinase domain (JH1) of JAK1 in the presence of CIS-SH2-BC with and without excess JAK1-Y1034 phosphopeptide as a competitor. […] Data were normalised to no-CIS controls.
# (c) Alternatively, 50 μM JAK1-Y1034 or JAK3-Y980,Y981 phosphopeptides were used as competitor. Data were normalised to no-CIS controls. All CIS constructs contained the SOCS box and were expressed and purified as a trimeric complex consisting of CIS, elongin B and elongin C.
# Kinase inhibition assays were performed essentially as described (Babon et al., 2012). Briefly, 130 μM STAT5b peptide (SEQ ID NO:18 […]) was incubated with 5 nM JAK1 at 25° C. for 30-60 min in 20 mM Tris pH 8.0, 100 mM NaCl, 5 mM 2-mercaptoethanol, 0.2 mg ml^−1 bovine serum albumin, 2 mM MgCl2, 100 μM ATP and 1 mCi γ-[32P]ATP. Recombinant CIS-SH2-BC was present at concentrations ranging from 0-30 μM. After incubation, the reaction was spotted onto P81 phosphocellulose paper and quenched in 5% H3PO4. The paper was washed (4×200 ml, 15 min) with 5% H3PO4 and exposed to a phosphorimager plate (Fuji). Quantitation was performed using Fuji software and IC50 curves calculated using Graphpad Prism.
# [2] = system: advanced malignant melanoma; conditions: patients; cited from earlier work
# [3] = target: T2, JAK3 phosphopeptide (JAK3-Y980,Y981) (Homo sapiens, UniProt P52333); test: ITC, CIS constructs binding to JAK3 phosphopeptide; conditions: CIS constructs with elongins B and C
# T2 construct: purchased Genscript
# Method: 300 μM phosphopeptides were titrated into a 30 μM solution of the GST-CIS-SH2-BC ternary complex. ITC titration curves are shown. The titration curves all fitted well to a single-site model.
# Isothermal calorimetric titrations were performed with a Microcal ITC200 (GE Healthcare). Phosphopeptides were obtained from Genscript. An optimised GST-CIS protein construct was prepared in which the internal PEST region ([…]) was deleted. The resulting ternary GST-CIS-SH2-SB complexes were dialysed against buffer (20 mM Tris pH 8.0, 100 mM NaCl, 2 mM 2-mercaptoethanol). Experiments were performed at 298 K unless stated otherwise. Typically, 12×3.15 μl injections of 300 μM phosphopeptides were titrated into a 30 μM solution of the GST-CIS-SH2-SB ternary complex. The heat of dilution of GST-CIS-SH2-BC was subtracted from the raw data of the binding experiment. Data were analysed using the evaluation software, Microcal Origin version 5.0. The binding curve fitted a single-site binding mode and all KD values were determined from duplicate experiments.
compound,measurement,setting,value
CC(C)C[C@@H](C=O)NC(=O)[C@H](CC(C)C)NC(=O)[C@H](CC(C)C)NC(=O)OCc1ccccc1 [MG132] (Cbz-Leu-Leu-Leu-aldehyde),Phosphorylation of endogenous JAK1,wild-type NK cells,increase in phosphorylation of endogenous JAK1
same,Effect on CIS-mediated regulation of JAK1 phosphorylation,[1],reduced CIS-mediated regulation of JAK1 phosphorylation
same,JAK1 phosphorylation,primary human NK cells,remained reduced
same,Total JAK1 and CIS levels,primary human NK cells,increase total JAK1 and CIS levels
CCCS(=O)(=O)Nc1ccc(F)c(C(=O)c2c[nH]c3ncc(Cl)cc23)c1F [PLX4720],LWT1 lung metastasis,LWT1 melanoma cells,further reduced
"O=P(O)(O)Oc1ccccc1 [phenyl phosphate, reference compound]",Effect on CIS inhibition of JAK1 kinase activity,"CIS; excess phenyl phosphate as competitor, all CIS constructs",abrogated the ability of all CIS constructs to inhibit JAK1 kinase activity
Ipilimumab: antibody-based therapy that targets CTLA-4,Tumour responses,[2],10-12%
JAK1-Y1034: phosphopeptide corresponding to a singly-phosphorylated JAK1 activation loop (Tyr1034),Effect on CIS inhibition of JAK1 kinase activity,CIS; 50 μM free phosphopeptide as competitor,dramatically reduced the ability of CIS to inhibit JAK1 kinase activity
same,Effect on CIS-mediated inhibition of JAK1 JH1,CIS; listed as JAK1 activation loop peptide,only partial reduction of inhibition
same,Effect on CIS-mediated inhibition of JAK1 JH1,CIS; listed as pY1034 peptide,partially reduced CIS-mediated inhibition
full-length CIS: human full-length CIS protein expressed with elongins B and C as trimeric complex,Binding affinity (ITC) to JAK3 phosphopeptide,[3],comparable affinity
